The subject of this test is MV-4-11 cells. The test is described as follows: Gene expression microarray analysis (Affymetrix PrimeView) and GSEA. The arrangement: RFU PODN (11730768_x_at) / Fold change /veh PODN (11730768_x_at) / RFU LINC00158 (11744669_a_at) / Fold change /veh LINC00158 (11744669_a_at) / RFU DUSP10 (11751237_a_at) / Fold change /veh DUSP10 (11751237_a_at) / RFU ID3 (11757404_x_at) / Fold change /veh ID3 (11757404_x_at) / RFU PLEKHG5 (11737974_s_at) / Fold change /veh PLEKHG5 (11737974_s_at) / RFU LRRC4B (11730491_at) / Fold change /veh LRRC4B (11730491_at) / RFU GIMAP4 (11747438_a_at) / Fold change /veh GIMAP4 (11747438_a_at) / RFU KRT8 (11758183_x_at) / Fold change /veh KRT8 (11758183_x_at) / RFU CNN1 (11734310_a_at) / Fold change /veh CNN1 (11734310_a_at) / RFU VPS37D (11726825_at) / Fold change /veh VPS37D (11726825_at) / RFU C10orf10 (11716522_x_at) / Fold change /veh C10orf10 (11716522_x_at) / RFU KIR2DL2 /// KIR2DL4 /// KIR2DL5A /// KIR2DL5B /// KIR2DS1 /// KIR2DS2 /// KIR2DS3 /// KIR2DS4 /// KIR3DL3 /// KIR3DL3 /// KIR3DS1 (11738374_at) / Fold change /veh KIR2DL2 /// KIR2DL4 /// KIR2DL5A /// KIR2DL5B /// KIR2DS1 /// KIR2DS2 /// KIR2DS3 /// KIR2DS4 /// KIR3DL3 /// KIR3DL3 /// KIR3DS1 (11738374_at) / RFU C1QL1 (11718748_at) / Fold change /veh C1QL1 (11718748_at) / RFU TMPRSS4 (11747572_a_at) / Fold change /veh TMPRSS4 (11747572_a_at) / RFU HAMP (11756126_x_at) / Fold change /veh HAMP (11756126_x_at) / RFU RNFT2 (11725882_a_at) / Fold change /veh RNFT2 (11725882_a_at) / RFU NR4A2 (11747474_a_at) / Fold change /veh NR4A2 (11747474_a_at) / RFU ABCC12 (11746883_a_at) / Fold change /veh ABCC12 (11746883_a_at) / RFU TMEM136 (11760407_x_at) / Fold change /veh TMEM136 (11760407_x_at) / RFU CLDN22 /// WWC2 (11732394_at) / Fold change /veh CLDN22 /// WWC2 (11732394_at) / RFU HLA-DPB1 (11760878_x_at) / Fold change /veh HLA-DPB1 (11760878_x_at) / RFU SPINT1 (11716480_a_at) / Fold change /veh SPINT1 (11716480_a_at) / RFU GAP43 (11754022_s_at) / Fold change /veh GAP43 (11754022_s_at) / RFU A4GNT (11735810_at) / Fold change /veh A4GNT (11735810_at) / RFU PRB3 (11715151_x_at) / Fold change /veh PRB3 (11715151_x_at) / RFU TUBB4B (11761932_at) / Fold change /veh TUBB4B (11761932_at) / RFU CAPN14 (11732068_a_at) / Fold change /veh CAPN14 (11732068_a_at) / RFU TMCC2 (11721928_a_at) / Fold change /veh TMCC2 (11721928_a_at) / RFU IRGQ (11745062_a_at) / Fold change /veh IRGQ (11745062_a_at) / RFU FAM174B (11720279_a_at) / Fold change /veh FAM174B (11720279_a_at) / RFU TMPRSS4 (11748680_a_at) / Fold change /veh TMPRSS4 (11748680_a_at) / RFU FAM212B (11763350_a_at) / Fold change /veh FAM212B (11763350_a_at) / RFU PLEKHG5 (11743358_a_at) / Fold change /veh PLEKHG5 (11743358_a_at) / RFU ZSCAN30 (11745921_a_at) / Fold change /veh ZSCAN30 (11745921_a_at) / RFU CMKLR1 (11741424_a_at) / Fold change /veh CMKLR1 (11741424_a_at) / RFU LOC101060620 /// MAPK8IP1 (11723275_at) / Fold change /veh LOC101060620 /// MAPK8IP1 (11723275_at) / RFU SPTSSB (11747773_x_at) / Fold change /veh SPTSSB (11747773_x_at) / RFU PRSS12 (11739890_at) / Fold change /veh PRSS12 (11739890_at) / RFU BIN1 (11741810_x_at) / Fold change /veh BIN1 (11741810_x_at) / RFU WNT11 (11732464_a_at) / Fold change /veh WNT11 (11732464_a_at) / RFU C10orf10 (11716521_a_at) / Fold change /veh C10orf10 (11716521_a_at) / RFU C5orf56 (11738089_at) / Fold change /veh C5orf56 (11738089_at) / RFU CYB561 (11721691_x_at) / Fold change /veh CYB561 (11721691_x_at) / RFU ANKRD19P (11752326_a_at) / Fold change /veh ANKRD19P (11752326_a_at) / RFU OR2T12 /// OR2T33 /// OR2T8 (11738714_s_at) / Fold change /veh OR2T12 /// OR2T33 /// OR2T8 (11738714_s_at) / RFU VCAN (11748164_a_at) / Fold change /veh VCAN (11748164_a_at) / RFU JSRP1 (11732532_at) / Fold change /veh JSRP1 (11732532_at) / RFU KRTAP10-11 (11738290_x_at) / Fold change /veh KRTAP10-11 (11738290_x_at) / RFU MYO3A (11730013_a_at) / Fold change /veh MYO3A (11730013_a_at) / RFU EBF3 (11725865_a_at) / Fold change /veh EBF3 (11725865_a_at) / RFU CAMK2N1 (11719241_x_at) / Fold change /veh CAMK2N1 (11719241_x_at) / RFU C5orf56 (11738088_a_at) / Fold change /veh C5orf56 (11738088_a_at) / RFU OLFML3 (11715873_a_at) / Fold change /veh OLFML3 (11715873_a_at) / RFU LOC100653217 /// NTM (11731650_a_at) / Fold change /veh LOC100653217 /// NTM (11731650_a_at) / RFU MAPK11 (11762145_a_at) / Fold change /veh MAPK11 (11762145_a_at) / RFU FIZ1 (11724087_x_at) / Fold change /veh FIZ1 (11724087_x_at) / RFU OASL (11726364_x_at) / Fold change /veh OASL (11726364_x_at) / RFU SOX15 (11748057_x_at) / Fold change /veh SOX15 (11748057_x_at) / RFU CD79A (11719716_a_at) / Fold change /veh CD79A (11719716_a_at) / RFU HIST1H1D (11736915_at) / Fold change /veh HIST1H1D (11736915_at) / RFU CASKIN2 (11723855_a_at) / Fold change /veh CASKIN2 (11723855_a_at) / RFU LOC730098 (11760151_x_at) / Fold change /veh LOC730098 (11760151_x_at) / RFU OR4N2 (11742367_at) / Fold change /veh OR4N2 (11742367_at) / RFU PRRT2 (11749266_a_at) / Fold change /veh PRRT2 (11749266_a_at) / RFU SNX32 (11753110_a_at) / Fold change /veh SNX32 (11753110_a_at) / RFU CDHR5 (11726645_a_at) / Fold change /veh CDHR5 (11726645_a_at) / RFU RCAN1 (11760418_a_at) / Fold change /veh RCAN1 (11760418_a_at) / RFU FAM167A (11723789_a_at) / Fold change /veh FAM167A (11723789_a_at) / RFU FAM26E (11764081_at) / Fold change /veh FAM26E (11764081_at) / RFU ISYNA1 (11749810_s_at) / Fold change /veh ISYNA1 (11749810_s_at) / RFU ACY1 (11761880_at) / Fold change /veh ACY1 (11761880_at) / RFU 11764098_at / Fold change /veh 11764098_at / RFU SAMD14 (11745864_x_at) / Fold change /veh SAMD14 (11745864_x_at) / RFU NPB (11741838_a_at) / Fold change /veh NPB (11741838_a_at) / RFU TMPRSS6 (11731388_a_at) / Fold change /veh TMPRSS6 (11731388_a_at) / RFU KRTAP10-2 (11738614_at) / Fold change /veh KRTAP10-2 (11738614_at) / RFU ARHGAP8 /// PRR5-ARHGAP8 (11727945_x_at) / Fold change /veh ARHGAP8 /// PRR5-ARHGAP8 (11727945_x_at) / RFU KRTAP5-7 /// NADSYN1 (11734609_at) / Fold change /veh KRTAP5-7 /// NADSYN1 (11734609_at) / RFU RASL12 (11751679_a_at) / Fold change /veh RASL12 (11751679_a_at) / RFU CDKN2B (11736163_a_at) / Fold change /veh CDKN2B (11736163_a_at) / RFU PRF1 (11729649_at) / Fold change /veh PRF1 (11729649_at) / RFU, ZNF638 /// ZNF638-IT1 / Fold change vs veh, ZNF638 /// ZNF638-IT1 / RFU, PANK3 / Fold change vs veh, PANK3 / RFU, SH3YL1 / Fold change vs veh, SH3YL1 / RFU, ZEB2 / Fold change vs veh, ZEB2 / RFU, NRIP1 / Fold change vs veh, NRIP1 / RFU, PTTG1IP / Fold change vs veh, PTTG1IP / RFU, CAPN2 / Fold change vs veh, CAPN2 / RFU, MED14 / Fold change vs veh, MED14 / RFU, SNORA58 / Fold change vs veh, SNORA58 / RFU, C1orf63 / Fold change vs veh, C1orf63 / RFU, LRRFIP1 / Fold change vs veh, LRRFIP1 / RFU, NDUFAF7 / Fold change vs veh, NDUFAF7 / RFU, SLC12A2 / Fold change vs veh, SLC12A2 / RFU, IBTK / Fold change vs veh, IBTK / RFU, ESF1 / Fold change vs veh, ESF1 / Fold change vs veh, TMEM50B / RFU, TAOK1 / Fold change vs veh, TAOK1 / RFU, ACBD3 / Fold change vs veh, ACBD3 / RFU, TMA16 / Fold change vs veh, TMA16 / RFU, RWDD3 / Fold change vs veh, RWDD3 / RFU, BCAT1 / Fold change vs veh, BCAT1 / RFU, EDEM3 / Fold change vs veh, EDEM3 / RFU, TMEM33 / Fold change vs veh, TMEM33 / RFU, WDR75 / Fold change vs veh, WDR75 / RFU, AHCTF1 / Fold change vs veh, AHCTF1 / RFU, TFRC / Fold change vs veh, TFRC / RFU, ZDHHC17 / Fold change vs veh, ZDHHC17 / RFU, NOM1 / Fold change vs veh, NOM1 / RFU, ARL8B / Fold change vs veh, ARL8B / RFU, ZBTB11 / Fold change vs veh, ZBTB11 / RFU, TAMM41 / Fold change vs veh, TAMM41 / RFU, KIAA1704 /// LOC100996395 / Fold change vs veh, KIAA1704 /// LOC100996395 / RFU, ING1 / Fold change vs veh, ING1 / RFU, TRMT61B / Fold change vs veh, TRMT61B / RFU, FUBP3 / Fold change vs veh, FUBP3 / RFU, TP53 / Fold change vs veh, TP53 / RFU, TNKS2 / Fold change vs veh, TNKS2 / RFU, ZFP14 / Fold change vs veh, ZFP14 / RFU, ACTR2 / Fold change vs veh, ACTR2 / RFU, PPP3R1 / Fold change vs veh, PPP3R1 / RFU, PIK3R1 / Fold change vs veh, PIK3R1 / RFU, HNRNPA1 / Fold change vs veh, HNRNPA1 / RFU, RNF170 / Fold change vs veh, RNF170 / RFU, ZNF28 / Fold change vs veh, ZNF28 / RFU, RNGTT / Fold change vs veh, RNGTT / RFU, OGT / Fold change vs veh, OGT / RFU, BRD1 / Fold change vs veh, BRD1 / RFU, MARS / Fold change vs veh, MARS / RFU, ZNF655 / Fold change vs veh, ZNF655 / RFU, FAHD1 / Fold change vs veh, FAHD1 / RFU, BDP1 / Fold change vs veh, BDP1 / RFU, LRRCC1 / Fold change vs veh, LRRCC1 / RFU, ARID1A / Fold change vs veh, ARID1A / RFU, ZNF146 / Fold change vs veh, ZNF146 / RFU, ZNF330 / Fold change vs veh, ZNF330 / RFU, GPN3 / Fold change vs veh, GPN3 / RFU, C9orf123 / Fold change vs veh, C9orf123 / RFU, N4BP2L2 / Fold change vs veh, N4BP2L2 / RFU, ARFIP1 / Fold change vs veh, ARFIP1 / RFU, FAM179B / Fold change vs veh, FAM179B / RFU, BCL10 / Fold change vs veh, BCL10 / RFU, UHRF1BP1L / Fold change vs veh, UHRF1BP1L / RFU, BET1 / Fold change vs veh, BET1 / RFU, CNOT2 / Fold change vs veh, CNOT2 / RFU, ZNF268 / Fold change vs veh, ZNF268 / Fold change vs veh, ZNF507 / RFU, DGCR2 / Fold change vs veh, DGCR2 / RFU, WDSUB1 / Fold change vs veh, WDSUB1 / Fold change vs veh, HSP90B1 /// MIR3652 / RFU, ADSS / Fold change vs veh, ADSS / RFU, GK / Fold change vs veh, GK / RFU, ZNF148 / Fold change vs veh, ZNF148 / RFU, TAF9 / Fold change vs veh, TAF9 / RFU, SLC1A5 / Fold change vs veh, SLC1A5 / RFU, SLMO2 / Fold change vs veh, SLMO2 / RFU, ABCC4 / Fold change vs veh, ABCC4 / RFU, LOC101060439 /// RAP1B / Fold change vs veh, LOC101060439 /// RAP1B / RFU, RFX7 / Fold change vs veh, RFX7 / RFU, GTPBP10 / Fold change vs veh, GTPBP10 / RFU, CNEP1R1 / Fold change vs veh, CNEP1R1 / RFU, BIVM-ERCC5 /// ERCC5 / Fold change vs veh, BIVM-ERCC5 /// ERCC5 / RFU, ILF3 / Fold change vs veh, ILF3 / RFU 11762660_at / Fold change /veh 11762660_at / RFU VCAN (11757783_s_at) / Fold change /veh VCAN (11757783_s_at) / RFU DDX43 (11728927_at) / Fold change /veh DDX43 (11728927_at) / RFU KRT8 (11758188_x_at) / Fold change /veh KRT8 (11758188_x_at) / RFU NKD1 (11759106_at) / Fold change /veh NKD1 (11759106_at) / RFU SRD5A1 (11742802_a_at) / Fold change /veh SRD5A1 (11742802_a_at) / RFU TPSAB1 /// TPSB2 (11721975_s_at) / Fold change /veh TPSAB1 /// TPSB2 (11721975_s_at) / RFU GSTM3 (11746129_a_at) / Fold change /veh GSTM3 (11746129_a_at) / RFU IL23R (11737362_x_at) / Fold change /veh IL23R (11737362_x_at) / RFU TMEM51 (11727254_a_at) / Fold change /veh TMEM51 (11727254_a_at) / RFU PIWIL2 (11732686_x_at) / Fold change /veh PIWIL2 (11732686_x_at) / RFU ORM1 (11744905_x_at) / Fold change /veh ORM1 (11744905_x_at) / RFU CCDC152 (11743942_at) / Fold change /veh CCDC152 (11743942_at) / RFU ECM1 (11717891_a_at) / Fold change /veh ECM1 (11717891_a_at) / RFU IL23R (11748794_a_at) / Fold change /veh IL23R (11748794_a_at) / RFU TNFAIP8L3 (11732012_x_at) / Fold change /veh TNFAIP8L3 (11732012_x_at) / RFU MBOAT4 (11741988_at) / Fold change /veh MBOAT4 (11741988_at) / RFU 11764193_at / Fold change /veh 11764193_at / RFU TMEM53 (11763286_at) / Fold change /veh TMEM53 (11763286_at) / RFU MAGEB2 (11727129_at) / Fold change /veh MAGEB2 (11727129_at) / RFU TMEM200A (11744735_a_at) / Fold change /veh TMEM200A (11744735_a_at) / RFU CCDC152 (11751479_a_at) / Fold change /veh CCDC152 (11751479_a_at) / RFU FAM211A (11726209_a_at) / Fold change /veh FAM211A (11726209_a_at) / RFU RGS16 (11746705_a_at) / Fold change /veh RGS16 (11746705_a_at) / RFU VCAN (11755009_s_at) / Fold change /veh VCAN (11755009_s_at) / RFU RHOB (11743442_s_at) / Fold change /veh RHOB (11743442_s_at) / RFU RGS16 (11720943_a_at) / Fold change /veh RGS16 (11720943_a_at) / RFU RGS16 (11720944_at) / Fold change /veh RGS16 (11720944_at) / RFU, VPS4B / Fold change vs veh, VPS4B / RFU, CREB1 / Fold change vs veh, CREB1 / RFU, DNAJC13 / Fold change vs veh, DNAJC13 / RFU, GNAQ / Fold change vs veh, GNAQ / RFU, CDK5R1 / Fold change vs veh, CDK5R1 / RFU, ZRANB3 / Fold change vs veh, ZRANB3 / RFU, CUL4A / Fold change vs veh, CUL4A / RFU, CCNY / Fold change vs veh, CCNY / RFU, UFL1 / Fold change vs veh, UFL1 / RFU, COG3 / Fold change vs veh, COG3 / RFU, DIAPH2 / Fold change vs veh, DIAPH2 / RFU, SKA2 / Fold change vs veh, SKA2 / RFU, AFF3 / Fold change vs veh, AFF3 / RFU, LMF1 / Fold change vs veh, LMF1 / RFU, IPO11 / Fold change vs veh, IPO11 / RFU, DFFB / Fold change vs veh, DFFB / RFU, FOXP1 / Fold change vs veh, FOXP1 / RFU, CARD8 / Fold change vs veh, CARD8 / RFU, STRN3 / Fold change vs veh, STRN3 / RFU, ADK / Fold change vs veh, ADK / RFU, RASSF2 / Fold change vs veh, RASSF2 / RFU, WIPF1 / Fold change vs veh, WIPF1 / RFU, LARP1B / Fold change vs veh, LARP1B / RFU, RASA1 / Fold change vs veh, RASA1 / RFU, RB1 / Fold change vs veh, RB1 / RFU, PPFIA1 / Fold change vs veh, PPFIA1 / RFU, MAT2A / Fold change vs veh, MAT2A / RFU, CCT5 / Fold change vs veh, CCT5 / RFU, WDR92 / Fold change vs veh, WDR92 / RFU, CUX1 / Fold change vs veh, CUX1 / RFU, TTC7A / Fold change vs veh, TTC7A / RFU, TMEM135 / Fold change vs veh, TMEM135 / RFU, DEPTOR / Fold change vs veh, DEPTOR / RFU, CPM / Fold change vs veh, CPM / RFU, DNAJB6 / Fold change vs veh, DNAJB6 / RFU, CACNA2D3 / Fold change vs veh, CACNA2D3 / RFU, DTX4 / Fold change vs veh, DTX4 / RFU, TFCP2 / Fold change vs veh, TFCP2 / RFU, GMCL1 /// GMCL1P1 / Fold change vs veh, GMCL1 /// GMCL1P1 / RFU, AEBP2 / Fold change vs veh, AEBP2 / RFU, SNHG1 /// SNORD22 /// SNORD25 /// SNORD26 /// SNORD27 /// SNORD28 /// SNORD29 /// SNORD31 / Fold change vs veh, SNHG1 /// SNORD22 /// SNORD25 /// SNORD26 /// SNORD27 /// SNORD28 /// SNORD29 /// SNORD31 / Fold change (Aza/veh), C12orf56 (ProbeSet 11735607_a_at) / Fold change (ACY-1035/veh), C12orf56 (ProbeSet 11735607_a_at) / Fold change (Aza/veh), FGFR1OP (ProbeSet 11751329_s_at) / Fold change (ACY-1035/veh), FGFR1OP (ProbeSet 11751329_s_at) / Fold change (Aza/veh), VPS36 (ProbeSet 11739960_a_at) / Fold change (ACY-1035/veh), VPS36 (ProbeSet 11739960_a_at) / RFU SYPL1 (11715823_x_at) / Fold change /veh SYPL1 (11715823_x_at) / RFU IGFBP7 (11715501_s_at) / Fold change /veh IGFBP7 (11715501_s_at) / RFU REEP3 (11722064_at) / Fold change /veh REEP3 (11722064_at) / RFU IGLL1 (11728026_x_at) / Fold change /veh IGLL1 (11728026_x_at): dose or concentration left out as unconfirmed. Type of test: cell-based, human. The note with it: ProbeSet 11746640_a_at; LIST D.

For the compound `Nc1ncn([C@@H]2O[C@H](CO)[C@@H](O)[C@H]2O)c(=O)n1` [azacitidine], the “Fold change vs veh, RASSF2” value stood at 0.77.

Values taken from PMC5218480 (PLoS ONE, 2017).
